Results: patent publication EP0048168A2, “7-Acylamino cephalosporin compounds, their preparation and pharmaceutical formulations containing them” (ELI LILLY AND COMPANY, priority 1980, dated 1982)
Values after ≈ are worked out from the molar mass of the structure shown. Read-outs that look alike come from different tables or passages of the source.

Tests used:
Assay in all cases: In vitro antibacterial activity, agar dilution technique using serial dilution
Type in all cases: cell-based
[1] = test system: Bordetella bronchoseptica; settings: Bordetella bronchoseptica strain 16; read-out: Minimum Inhibitory Concentration
Description: (§1) The antibacterial activity of the compounds of the invention is illustrated by the in vitro activity of a preferred compound, 7β-[α-methoxyimino-α-(2-amino-1,3-thiazol-4-yl)acetamido]-3-(1-cyanomethyl-1H-tetrazol-5-ylthiomethyl)-3-cephem-4-carboxylic acid, against a wide spectrum of microorganisms. The activity was determined by the agar dilution technique using serial dilution.

[2] = test system: Citrobacter freundii; settings: Citrobacter freundii strain CF17; read-out: Minimum Inhibitory Concentration
Description: as §1

[3] = test system: Enterobacter aerogenes; settings: Klebsiella aerogenes, read-out: Minimum Inhibitory Concentration
Description: as §1

[4] = test system: Enterobacter cloacae
Description: as §1

[5] = test system: Escherichia coli
Description: as §1

[6] = test system: Haemophilus influenzae; settings: read-out: Minimum Inhibitory Concentration
Description: as §1

[7] = test system: Klebsiella sp.; settings: Klebsiella sp. strain KAE; read-out: Minimum Inhibitory Concentration
Description: as §1

[8] = test system: Proteus inconstans; settings: Providencia alcalifaciens; Proteus inconstans strain PR33; read-out: Minimum Inhibitory Concentration
Description: as §1

[9] = test system: Proteus morganii; settings: Morganella morganii; Proteus morganii strain PR15; read-out: Minimum Inhibitory Concentration
Description: as §1

[10] = test system: Proteus rettgeri; settings: Providencia rettgeri
Description: as §1

[11] = test system: Pseudomonas aeruginosa
Description: as §1

[12] = test system: Salmonella sp.
Description: as §1

[13] = test system: Serratia marcescens
Description: as §1

[14] = test system: Shigella sonnei; settings: Shigella sonnei strain N9; read-out: Minimum Inhibitory Concentration
Description: as §1

[15] = test system: Staphylococcus aureus
Description: as §1

[16] = test system: Staphylococcus epidermidis
Description: as §1

[17] = test system: Streptococcus Group A; settings: Streptococcus Group A strain C203; read-out: Minimum Inhibitory Concentration
Description: as §1

[18] = test system: Streptococcus Group D; settings: read-out: Minimum Inhibitory Concentration
Description: as §1

[19] = test system: Streptococcus pneumoniae; settings: Streptococcus pneumoniae strain Park; read-out: Minimum Inhibitory Concentration
Description: as §1

CO/N=C(\C(=O)N[C@@H]1C(=O)N2C(C(=O)O)=C(CSc3nnnn3CC#N)CS[C@H]12)c1csc(N)n1 [syn 7β-[α-Methoximino-α-(2-amino-1,3-thiazol-4-yl)-acetamido]-3-(1-cyanomethyl-1H-tetrazol-5-ylthiomethyl)-3-cephem-4-carboxylic acid]
MIC [1]: 64 µg/mL (≈ 119 µM) | MIC [2]: 8 µg/mL (≈ 14.9 µM) | MIC ([3]; Enterobacter aerogenes strain EB17): 0.25 µg/mL (≈ 0.466 µM) | MIC ([3]; Enterobacter aerogenes strain X68): 0.06 µg/mL (≈ 0.112 µM) | MIC [3]: 0.125 µg/mL (≈ 0.233 µM) | MIC ([4]; Enterobacter cloacae strain 265A, read-out: Minimum Inhibitory Concentration): 32 µg/mL (≈ 59.6 µM) | MIC ([4]; Enterobacter cloacae strain EB5, read-out: Minimum Inhibitory Concentration): 1 µg/mL (≈ 1.86 µM) | MIC ([5]; Escherichia coli strain EC14, read-out: Minimum Inhibitory Concentration): 0.06 µg/mL (≈ 0.112 µM) | MIC ([5]; Escherichia coli strain N10, read-out: Minimum Inhibitory Concentration): 0.25 µg/mL (≈ 0.466 µM) | MIC ([5]; Escherichia coli strain TEM, read-out: Minimum Inhibitory Concentration): 0.06 µg/mL (≈ 0.112 µM) | MIC ([6]; Haemophilus influenzae strain 76, resistant strain of H. influenzae): 0.015 µg/mL (≈ 0.028 µM) | MIC ([6]; Haemophilus influenzae strain C.L., sensitive strain of H. influenzae): 0.03 µg/mL (≈ 0.0559 µM) | MIC [7]: 2 µg/mL (≈ 3.73 µM) | MIC [8]: 0.125 µg/mL (≈ 0.233 µM) | MIC [9]: 0.06 µg/mL (≈ 0.112 µM) | MIC ([10]; read-out: Minimum Inhibitory Concentration, Proteus rettgeri strain C24): 0.125 µg/mL (≈ 0.233 µM) | MIC ([10]; Proteus rettgeri strain PR7, read-out: Minimum Inhibitory Concentration): 0.06 µg/mL (≈ 0.112 µM) | MIC ([11]; Pseudomonas aeruginosa strain Ps18, read-out: Minimum Inhibitory Concentration): 32 µg/mL (≈ 59.6 µM) | MIC ([11]; Pseudomonas aeruginosa strain X239, read-out: Minimum Inhibitory Concentration): 16 µg/mL (≈ 29.8 µM) | MIC ([11]; Pseudomonas aeruginosa strain X528, read-out: Minimum Inhibitory Concentration): 16 µg/mL (≈ 29.8 µM) | MIC ([12]; Salmonella sp. strain 1335, read-out: Minimum Inhibitory Concentration): 0.5 µg/mL (≈ 0.932 µM) | MIC ([12]; Salmonella sp. strain X514, read-out: Minimum Inhibitory Concentration): 0.125 µg/mL (≈ 0.233 µM) | MIC ([13]; Serratia marcescens strain 3E3, read-out: Minimum Inhibitory Concentration): 0.25 µg/mL (≈ 0.466 µM) | MIC ([13]; Serratia marcescens, read-out: Minimum Inhibitory Concentration, Serratia marcescens strain X93): 0.125 µg/mL (≈ 0.233 µM) | MIC [14]: 0.125 µg/mL (≈ 0.233 µM) | MIC ([15]; Staphylococcus aureus strain V41, read-out: Minimum Inhibitory Concentration): 4 µg/mL (≈ 7.45 µM) | MIC ([15]; Staphylococcus aureus strain X1.1, read-out: Minimum Inhibitory Concentration): 1 µg/mL (≈ 1.86 µM) | MIC ([15]; Staphylococcus aureus strain X400, read-out: Minimum Inhibitory Concentration): 32 µg/mL (≈ 59.6 µM) | MIC ([15]; read-out: Minimum Inhibitory Concentration): 8 µg/mL (≈ 14.9 µM) | MIC ([16]; Staphylococcus epidermidis strain EPI1, read-out: Minimum Inhibitory Concentration): 4 µg/mL (≈ 7.45 µM) | MIC ([16]; Staphylococcus epidermidis strain EPI2, read-out: Minimum Inhibitory Concentration): 8 µg/mL (≈ 14.9 µM) | MIC [17]: 0.015 µg/mL (≈ 0.028 µM) | MIC ([18]; Streptococcus Group D strain 9960): 128 µg/mL (≈ 239 µM) | MIC ([18]; Streptococcus Group D strain X66): > 128 µg/mL | MIC [19]: 0.03 µg/mL (≈ 0.0559 µM)
